Test results published in patent publication US10647990B2, “Rice high temperature resistance gene and use in crop breeding resistance to high temperature thereof” (SHANGHAI INSTITUTES FOR BIOLOGICAL SCIENCES, CHINESE …, priority 2014, dated 2020).
“Also recorded” adds a separate entry of the source. Peptide text beside a SMILES is read from it. * marks the point of attachment. Cbz = O=C(OCc1ccccc1)*

Tested on: rice
Experiment: MG132 treatment of rice during high temperature treatment (blocking the 26S proteasome degradation pathway)
Assay type: in vivo, Oryza sativa
Conditions: under high temperature stress; MG132 0 μM, 50 μM, 100 μM; FIG. 6G, H

## CC(C)C[C@@H](C=O)NC(=O)[C@H](CC(C)C)NC(=O)[C@H](CC(C)C)NC(=O)OCc1ccccc1 [MG132] (Cbz-Leu-Leu-Leu-aldehyde)
  high temperature resistance of rice: high temperature sensitive phenotype; also recorded: can reduce the high temperature resistance of rice
